Measured values published in PubChem BioAssay AID1259407 (Chemical Carcinogenesis Research Information System (CCRIS), 2018).
Active and inactive are the calls of the source. How the calls were made is not given here.

Test system: CCRIS mutagenicity, Ames/micronucleus/aberration tests
Experiment: CCRIS mutagenicity studies
[1] = Test System: AMES SALMONELLA TYPHIMURIUM, Strain/Indicator: TA100, Metabolic Activation: NONE, Method: STANDARD PLATE
[2] = Test System: AMES SALMONELLA TYPHIMURIUM, Strain/Indicator: TA98, Metabolic Activation: NONE, Method: STANDARD PLATE
[3] = Test System: AMES SALMONELLA TYPHIMURIUM, Strain/Indicator: TA98, Metabolic Activation: RAT, LIVER, S-9, AROCLOR 1254, Method: STANDARD PLATE
[4] = Test System: AMES SALMONELLA TYPHIMURIUM, Strain/Indicator: TA100, Metabolic Activation: RAT, LIVER, S-9, AROCLOR 1254, Method: STANDARD PLATE

C=C1C/C(=C/C)C(=O)O[C@@H]2CCN3CC=C(COC(=O)[C@@]1(O)CO)[C@H]23
mutagenic call (End Point: IN VITRO CHROMOSOMAL ABERRATIONS, Test System: CHINESE HAMSTER OVARY CELLS, Metabolic Activation: NONE): inactive; negative
mutagenic call (End Point: IN VITRO CHROMOSOMAL ABERRATIONS, Test System: CHINESE HAMSTER OVARY CELLS, Metabolic Activation: RAT, LIVER, S-9, AROCLOR 1254): active; positive; very high frequencies of aberrations were induced in the 25 cells coun
mutagenic call (Test System: AMES SALMONELLA TYPHIMURIUM, Strain/Indicator: TA97, Metabolic Activation: HAMSTER, LIVER, S-9, AROCLOR 1254 (10 OR 30%), Method: PREINCUBATION): inactive; negative
mutagenic call (Test System: AMES SALMONELLA TYPHIMURIUM, Strain/Indicator: TA97, Metabolic Activation: NONE, Method: PREINCUBATION): inactive; negative
mutagenic call (Test System: AMES SALMONELLA TYPHIMURIUM, Strain/Indicator: TA97, Metabolic Activation: RAT, LIVER, S-9, AROCLOR 1254 (10 OR 30%), Method: PREINCUBATION): inactive; negative
mutagenic call (Test System: AMES SALMONELLA TYPHIMURIUM, Strain/Indicator: TA98, Metabolic Activation: HAMSTER, LIVER, S-9, AROCLOR 1254 (10 OR 30%), Method: PREINCUBATION): inactive; negative
mutagenic call (Test System: AMES SALMONELLA TYPHIMURIUM, Strain/Indicator: TA98, Metabolic Activation: NONE, Method: PREINCUBATION): inactive; negative
mutagenic call (Test System: AMES SALMONELLA TYPHIMURIUM, Strain/Indicator: TA98, Metabolic Activation: RAT, LIVER, S-9, AROCLOR 1254 (10 OR 30%), Method: PREINCUBATION): inactive; negative
mutagenic call (Test System: AMES SALMONELLA TYPHIMURIUM, Strain/Indicator: TA100, Metabolic Activation: HAMSTER, LIVER, S-9, AROCLOR 1254 (10%), Method: PREINCUBATION): inactive; negative
mutagenic call (Test System: AMES SALMONELLA TYPHIMURIUM, Strain/Indicator: TA100, Metabolic Activation: HAMSTER, LIVER, S-9, AROCLOR 1254 (30%), Method: PREINCUBATION): active; positive
mutagenic call (Test System: AMES SALMONELLA TYPHIMURIUM, Strain/Indicator: TA100, Metabolic Activation: NONE, Method: PREINCUBATION): inactive; negative
mutagenic call (Test System: AMES SALMONELLA TYPHIMURIUM, Strain/Indicator: TA100, Metabolic Activation: RAT, LIVER, S-9, AROCLOR 1254 (10%), Method: PREINCUBATION): inactive; negative
mutagenic call (Test System: AMES SALMONELLA TYPHIMURIUM, Strain/Indicator: TA100, Metabolic Activation: RAT, LIVER, S-9, AROCLOR 1254 (30%), Method: PREINCUBATION): active; positive
mutagenic call (Test System: AMES SALMONELLA TYPHIMURIUM, Strain/Indicator: TA1535, Metabolic Activation: HAMSTER, LIVER, S-9, AROCLOR 1254 (10 OR 30%), Method: PREINCUBATION): inactive; negative
mutagenic call (Test System: AMES SALMONELLA TYPHIMURIUM, Strain/Indicator: TA1535, Metabolic Activation: NONE, Method: PREINCUBATION): inactive; negative
mutagenic call (Test System: AMES SALMONELLA TYPHIMURIUM, Strain/Indicator: TA1535, Metabolic Activation: RAT, LIVER, S-9, AROCLOR 1254 (10 OR 30%), Method: PREINCUBATION): inactive; negative

COc1cc(Oc2ccc(Cl)cc2Cl)ccc1N
mutagenic call (Test System: AMES SALMONELLA TYPHIMURIUM, Strain/Indicator: TA98, Metabolic Activation: S-9, Method: STANDARD PLATE): inactive; negative
mutagenic call (Test System: AMES SALMONELLA TYPHIMURIUM, Strain/Indicator: TA100, Metabolic Activation: S-9, Method: STANDARD PLATE): active; positive
mutagenic call (Test System: AMES SALMONELLA TYPHIMURIUM, Strain/Indicator: YG1021, Metabolic Activation: S-9, Method: STANDARD PLATE): inactive; negative
mutagenic call (Test System: AMES SALMONELLA TYPHIMURIUM, Strain/Indicator: YG1024, Metabolic Activation: S-9, Method: STANDARD PLATE): active; positive
mutagenic call (Test System: AMES SALMONELLA TYPHIMURIUM, Strain/Indicator: YG1026, Metabolic Activation: S-9, Method: STANDARD PLATE): active; positive
mutagenic call (Test System: AMES SALMONELLA TYPHIMURIUM, Strain/Indicator: YG1029, Metabolic Activation: S-9, Method: STANDARD PLATE): active; positive

NC(=O)OC[C@H](O)[C@@H](O)[C@H](N)C(=O)N[C@H](C(=O)[O-])[C@H]1O[C@@H](n2cc(C(=O)[O-])c(=O)[nH]c2=O)[C@H](O)[C@@H]1O.[Zn+2]
mutagenic call [1]: active; positive
mutagenic call (Test System: AMES SALMONELLA TYPHIMURIUM, Strain/Indicator: TA100, Metabolic Activation: S-9 MIX, Method: STANDARD PLATE): active; positive

O=[N+]([O-])c1ccc2c3c(cccc13)CC2
mutagenic call [2]: active; positive
mutagenic call [3]: active; positive
mutagenic call (Test System: AMES SALMONELLA TYPHIMURIUM, Strain/Indicator: TA98, Metabolic Activation: RAT, LIVER, S-9, KC500 OR PHENOBARBITAL, Method: LIQUID SUSPENSION): active; positive
mutagenic call [1]: active; positive
mutagenic call [4]: active; positive
mutagenic call (Test System: AMES SALMONELLA TYPHIMURIUM, Strain/Indicator: TA100, Metabolic Activation: RAT, LIVER, S-9, KC500 OR PHENOBARBITAL, Method: LIQUID SUSPENSION): active; positive
mutagenic call (Test System: E. COLI, Strain/Indicator: WP2 UVRA, Metabolic Activation: NONE, Method: STANDARD PLATE): inactive; negative
mutagenic call (Test System: E. COLI, Strain/Indicator: WP2 UVRA, Metabolic Activation: RAT, LIVER, S-9, Method: STANDARD PLATE): inactive; negative

CC(=O)Nc1ccc(OCC(O)CNC(C)C)cc1 (centres undefined)
mutagenic call (Test System: AMES SALMONELLA TYPHIMURIUM, Strain/Indicator: TA98, Metabolic Activation: NONE): inactive; negative
mutagenic call [2]: inactive; negative
mutagenic call (Test System: AMES SALMONELLA TYPHIMURIUM, Strain/Indicator: TA98, Metabolic Activation: RAT, LIVER, S-9, AROCLOR 1254): inactive; negative
mutagenic call [3]: inactive; negative
mutagenic call (Test System: AMES SALMONELLA TYPHIMURIUM, Strain/Indicator: TA100, Metabolic Activation: NONE): inactive; negative
mutagenic call [1]: inactive; negative
mutagenic call (Test System: AMES SALMONELLA TYPHIMURIUM, Strain/Indicator: TA100, Metabolic Activation: RAT, LIVER, S-9, AROCLOR 1254): inactive; negative
mutagenic call [4]: inactive; negative
mutagenic call (Test System: AMES SALMONELLA TYPHIMURIUM, Strain/Indicator: TA1535, Metabolic Activation: NONE): inactive; negative
mutagenic call (Test System: AMES SALMONELLA TYPHIMURIUM, Strain/Indicator: TA1535, Metabolic Activation: RAT, LIVER, S-9, AROCLOR 1254): inactive; negative
mutagenic call (Test System: AMES SALMONELLA TYPHIMURIUM, Strain/Indicator: TA1537, Metabolic Activation: NONE): inactive; negative
mutagenic call (Test System: AMES SALMONELLA TYPHIMURIUM, Strain/Indicator: TA1537, Metabolic Activation: RAT, LIVER, S-9, AROCLOR 1254): inactive; negative
